Read-outs that look alike come from different tables or passages of the source.
Target: T1, human Y5 receptor (Homo sapiens, UniProt Q15761)
T1 construct: expressed in transfected cells; host or cells: mouse fibroblast LM(tk-) cells, e.g. L-hY5-7 (ATCC CRL-11995)
T1 sequence (Q15761 1-445): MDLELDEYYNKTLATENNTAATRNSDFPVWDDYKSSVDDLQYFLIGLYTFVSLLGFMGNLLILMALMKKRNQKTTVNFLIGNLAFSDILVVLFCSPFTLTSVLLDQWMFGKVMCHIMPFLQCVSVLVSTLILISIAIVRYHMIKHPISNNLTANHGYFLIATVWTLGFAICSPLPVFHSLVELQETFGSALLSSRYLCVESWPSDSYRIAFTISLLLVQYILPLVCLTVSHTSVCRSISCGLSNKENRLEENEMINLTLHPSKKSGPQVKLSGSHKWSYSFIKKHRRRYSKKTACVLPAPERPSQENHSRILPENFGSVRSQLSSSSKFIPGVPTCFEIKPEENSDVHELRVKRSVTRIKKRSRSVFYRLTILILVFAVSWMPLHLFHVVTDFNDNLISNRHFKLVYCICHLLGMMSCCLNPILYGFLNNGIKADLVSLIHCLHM
Test: Radioligand binding to membranes, cloned human Y5 receptor

[1] = Table 1, read-out: Ki (nM) hNPY-5
[2] = Table 6, read-out: Ki, nM hNPY-5

Protocol: Binding of the compounds of the present invention to human Y1, Y2, Y4, and Y5 receptors was evaluated using stably transfected 293 or LM(tk-) cells as described above.
Membranes were harvested from COS-7 cells 48 hours after transient transfection. Adherent cells were washed twice in ice-cold phosphate buffered saline (138 mM NaCl, 8.1 mM Na2HPO4, 2.5 mM KCl, 1.2 mM KH2PO4, 0.9 mM CaCl2, 0.5 mM MgCl2, pH 7.4) and lysed by sonication in ice-cold sonication buffer (20 mM Tris-HCl, 5 mM EDTA, pH 7.7). Large particles and debris were cleared by low speed centrifugation (200×g, 5 min, 4° C.). Membranes were collected from the supernatant fraction by centrifugation (32,000×g, 18 min, 4° C.), washed with ice-cold hypotonic buffer, and collected again by centrifugation (32,000×g, 18 min, 4° C.). The final membrane pellet was resuspended by sonication into a small volume of ice-cold binding buffer (˜1 ml for every 5 plates: 10 mM NaCl, 20 mM HEPES, 0.22 mM KH2PO4, 1.26 mM CaCl2, 0.81 mM MgSO4, pH 7.4). Protein concentration was measured by the Bradford method (Bradford, 1976) using Bio-Rad Reagent, with bovine serum albumin as a standard. Membranes were held on ice for up to one hour and used fresh, or flash-frozen and stored in liquid nitrogen.
Membranes were prepared similarly from 293, LM(tk-), and NIH-3T3 cells.
Membrane suspensions were diluted in binding buffer supplemented with 0.1% bovine serum albumin to yield an optimal membrane protein concentration so that ^125I-PYY (or alternative radioligand such as ^125I-NPY, ^125I-NYY3-36, or ^125I-[Leu^31Pro^34]PYY) bound by membranes in the assay was less than 10% of ^125I-PYY (or alternative radioligand) delivered to the sample (100,000 dpm/sample=0.08 nM for competition binding assays). ^125I-PYY (or alternative radioligand) and peptide competitors were also diluted to desired concentrations in supplemented binding buffer. Individual samples were then prepared in 96-well polypropylene microtiter plates by mixing ^125I-PYY (25 μL) (or alternative radioligand), competing peptides or supplemented binding buffer (25 μL), and finally, membrane suspensions (200 μL). Samples were incubated in a 30° C. water bath with constant shaking for 120 min. Incubations were terminated by filtration over Whatman GF/C filters (pre-coated with 1% polyethyleneimine and air-dried before use), followed by washing with 5 mL of ice-cold binding buffer. Filter-trapped membranes were impregnated with MeltiLex solid scintillant (Wallac, Turku, Finland) and counted for ^125I in a Wallac Beta-Plate Reader. Alternatively, incubations were carried out in GF/C filter plates (pre-coated with 1% polyethyleneimine and air-dried before use), followed by vacuum filtration and three washes of 300 μL of ice-cold binding buffer. 50 μL of UltimaGold (Packard) scintillant were added and counted for ^125I, in a Wallac MicroBeta Trilux. Non-specific binding was defined by 300 nM human NPY for all receptors except the Y4 subtypes; 100 nM human PP was used for the human Y4 and 100 nM rat PP for the rat Y4.

Compound | Ki [1] [nM] | Ki [2] [nM] | other results
CC(C)Nc1nc(NCCCn2ccnc2)nc(NCC2CCC(CNS(=O)(=O)c3cccc4ccccc34)CC2)n1 (stereo not drawn) [Example 15, N1-[4-([4-[3-(1H-1-imidazolyl)propyl]amino-6-(isopropylamino)-1,3,5-triazin-2-yl]aminomethyl)cyclohexyl]methyl-1-naphthalenesulfonamide] | 83 | – | –
Cc1cccc(F)c1S(=O)(=O)NCCCCCCNc1nc2c(s1)CCSc1ccccc1-2 [Example 149, N1-[6-(4,5-Dihydrobenzo[2,3]thiepino[4,5-d][1,3]thiazol-2-ylamino)hexyl]-2-fluoro-6-methyl-1-benzenesulfonamide] | – | 4 | –
CC(C)Nc1nc(NCC2CCC(CNS(=O)(=O)c3cccc4ccccc34)CC2)nc(N2CCOCC2)n1 (stereo not drawn) [Example 24, N1-[4-([4-(isopropylamino)-6-morpholino-1,3,5-triazin-2-yl]aminomethyl)cyclohexyl]methyl-1-naphthalenesulfonamide] | 40 | – | –
CCNc1nc(NCC)nc(NCC2CCC(CNS(=O)(=O)c3ccc(F)cc3)CC2)n1 (stereo not drawn) [Example 30, N1-[4-([4,6-di(ethylamino)-1,3,5-triazin-2-yl]aminomethyl)cyclohexyl]methyl-4-fluoro-1-benzenesulfonamide] | – | – | Ki (Table 2, read-out: Ki (nM) hNPY-5): 40 nM
N#Cc1ccccc1S(=O)(=O)NC[C@H]1CC[C@H](Nc2nc3c(s2)CCSc2ccccc2-3)CC1 [Example 154, N1-{[4-(4,5-Dihydrobenzo[2,3]thiepino[4,5-d][1,3]thiazol-2-ylamino)cyclohexyl]methyl}-2-cyano-1-benzenesulfonamide] | – | 69 | –
CC(C)Nc1nc(NCCO)nc(NCC2CCC(CNS(=O)(=O)c3cccc4ccccc34)CC2)n1 (stereo not drawn) [Example 11, N1-[4-([4-[(2-hydroxyethyl)amino]-6-(isopropylamino)-1,3,5-triazin-2-yl]aminomethyl)cyclohexyl]methyl-1-naphthalenesulfonamide] | 35 | – | –
CC(C)Nc1nc(NCC2CCC(CNS(=O)(=O)NC3CC3)CC2)nc(NC2CC2)n1 (stereo not drawn) [Example 47, N-cyclopropyl-N′-[4-([4-(cyclopropylamino)-6-(isopropylamino)-1,3,5-triazin-2-yl]aminomethyl)cyclohexyl]methylsulfamide] | – | – | Ki (Table 3, read-out: Ki (nM) hNPY-5): 359 nM
Cc1nc(-c2csc(NC[C@H]3CC[C@H](N(C=O)C(C)C)CC3)n2)c(C)s1 [Example 102, trans-N-[4-([4-(2,5-Dimethyl-1,3-thiazol-4-yl)-1,3-thiazol-2-yl]aminomethyl)cyclohexyl]-N-isopropylformamide] | – | – | Ki (Table 5, read-out: Ki, nM hNPY-5): 72 nM
O=S(=O)(NC[C@H]1CC[C@H](Nc2nc3c(s2)CCSc2ccccc2-3)CC1)c1cccs1 [Example 108, N2-{[4-(4,5-Dihydrobenzo[2,3]thiepino[4,5-d][1,3]thiazol-2-ylamino)cyclohexyl]methyl}-2-thiophenesulfonamide] | – | 5.1 | –
CC(C)Nc1nc(NCC2CCC(CNS(=O)(=O)c3cccc4ccccc34)CC2)nc(N2CCN(C(C)C)CC2)n1 (stereo not drawn) [Example 28, N1-{[4-({[4-(isopropylamino)-6-(4-isopropylpiperazino)-1,3,5-triazin-2-yl]amino}methyl)cyclohexyl]methyl}-1-naphthalenesulfonamide] | 22 | – | –
O=S(=O)(NC[C@H]1CC[C@H](Nc2nc3c(s2)CCSc2ccccc2-3)CC1)c1ccc(-c2ccccn2)s1 [Example 120, N2-{[4-(4,5-Dihydrobenzo[2,3]thiepino[4,5-d][1,3]thiazol-2-ylamino)cyclohexyl]methyl}-5-(2-pyridyl)-2-thiophenesulfonamide] | – | 54 | –
COC[C@@H]1CCCN1c1nc(NCC2CCC(CNS(=O)(=O)c3cccc4ccccc34)CC2)nc(NC(C)C)n1 (stereo partly drawn) [Example 21, N1-(4-[(4-(isopropylamino)-6-[(2S)-2-(methoxymethyl)tetrahydro-1H-1-pyrrolyl]-1,3,5-triazin-2-ylamino)methyl]cyclohexylmethyl)-1-naphthalenesulfonamide] | 71 | – | –
